Experimental data from PubChem BioAssay AID2060604 (Molecular Pharmacology Branch, DTP, NCI, 2025).

System: 379773-124-R-J2-PDC complex spheroids, viability % test/control
Assay: Anticancer human tumor 379773-124-R-J2-PDC patient-derived endometrial carcinoma cell line growth inhibition [CLK]
Details: for IC50: curve of first compound; for viability, T/C: stronger effect = lower value
Outline: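 Multi-cell-type spheroids combined patient-derived tumor cells with HUVEC endothelial cells and human mesenchymal stem cells. Paired agents were dosed in half-log steps down from about clinical Cmax, or from 10 microM where Cmax was unknown.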

[1] = second compound 0.0316 µM, first compound 0.0316 µM
[2] = second compound 0.0316 µM, first compound 0.1 µM
[3] = second compound 0.1 µM, first compound 0.0316 µM
[4] = second compound 0.1 µM, first compound 0.1 µM
[5] = second compound 0.316 µM, first compound 0.0316 µM
[6] = second compound 0.316 µM, first compound 0.1 µM
[7] = second compound 1 µM, first compound 0.0316 µM
[8] = second compound 1 µM, first compound 0.1 µM
[9] = second compound 3.16 µM, first compound 0.0316 µM
[10] = second compound 3.16 µM, first compound 0.1 µM
[11] = second compound 10 µM, first compound 0.0316 µM
[12] = second compound 10 µM, first compound 0.1 µM
[13] = second compound 0.0316 µM, first compound 0.316 µM
[14] = second compound 0.0316 µM, first compound 1 µM
[15] = second compound 0.0316 µM, first compound 3.16 µM
[16] = second compound 0.0316 µM, first compound 10 µM
[17] = second compound 0.1 µM, first compound 0.316 µM
[18] = second compound 0.1 µM, first compound 1 µM
[19] = second compound 0.1 µM, first compound 3.16 µM
[20] = second compound 0.1 µM, first compound 10 µM
[21] = second compound 0.316 µM, first compound 0.316 µM
[22] = second compound 0.316 µM, first compound 1 µM
[23] = second compound 0.316 µM, first compound 3.16 µM
[24] = second compound 0.316 µM, first compound 10 µM
[25] = second compound 1 µM, first compound 0.316 µM
[26] = second compound 1 µM, first compound 1 µM
[27] = second compound 1 µM, first compound 3.16 µM
[28] = second compound 1 µM, first compound 10 µM
[29] = second compound 3.16 µM, first compound 0.316 µM
[30] = second compound 3.16 µM, first compound 1 µM
[31] = second compound 3.16 µM, first compound 3.16 µM
[32] = second compound 3.16 µM, first compound 10 µM
[33] = second compound 10 µM, first compound 0.316 µM
[34] = second compound 10 µM, first compound 1 µM
[35] = second compound 10 µM, first compound 3.16 µM
[36] = second compound 10 µM, first compound 10 µM
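Further: compound exposure lasted seven days before the viability readout.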
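Wherever viability, T/C is given: 100% = DMSO vehicle control wells.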

Cn1ncnc1[C@H]1c2n[nH]c(=O)c3cc(F)cc(c23)N[C@@H]1c1ccc(F)cc1 + CN1CCN(c2cc(C(=O)Nc3cc4cc(-c5cnn(C)c5)ccc4cn3)ccn2)CC1
IC50 (second compound 0.0316 µM): 42.6 nM
IC50 (second compound 0.1 µM): 22.2 nM
IC50 (second compound 0.316 µM): < 0.316 nM
IC50 (second compound 1 µM): < 0.316 nM
IC50 (second compound 3.16 µM): < 0.316 nM
IC50 (second compound 10 µM): < 0.316 nM
viability, T/C (second compound 0.0316 µM, first compound 0.000316 µM): 87.8%
viability, T/C (second compound 0.0316 µM, first compound 0.001 µM): 96.2%
viability, T/C (second compound 0.0316 µM, first compound 0.00316 µM): 80.3%
viability, T/C (second compound 0.0316 µM, first compound 0.01 µM): 92.6%
viability, T/C [1]: 55.6%
viability, T/C [2]: 34%
viability, T/C (second compound 0.1 µM, first compound 0.000316 µM): 87%
viability, T/C (second compound 0.1 µM, first compound 0.001 µM): 82.6%
viability, T/C (second compound 0.1 µM, first compound 0.00316 µM): 79.1%
viability, T/C (second compound 0.1 µM, first compound 0.01 µM): 64.1%
viability, T/C [3]: 43.6%
viability, T/C [4]: 27%
viability, T/C (second compound 0.316 µM, first compound 0.000316 µM): 24.1%
viability, T/C (second compound 0.316 µM, first compound 0.001 µM): 29.2%
viability, T/C (second compound 0.316 µM, first compound 0.00316 µM): 17.9%
viability, T/C (second compound 0.316 µM, first compound 0.01 µM): 21.4%
viability, T/C [5]: 15.2%
viability, T/C [6]: 12.3%
viability, T/C (second compound 1 µM, first compound 0.000316 µM): 0.11%
viability, T/C (second compound 1 µM, first compound 0.001 µM): 0.8%
viability, T/C (second compound 1 µM, first compound 0.00316 µM): 0.33%
viability, T/C (second compound 1 µM, first compound 0.01 µM): 0.19%
viability, T/C [7]: 0.06%
viability, T/C [8]: 0.07%
viability, T/C (second compound 3.16 µM, first compound 0.000316 µM): 1.37%
viability, T/C (second compound 3.16 µM, first compound 0.001 µM): 0.24%
viability, T/C (second compound 3.16 µM, first compound 0.00316 µM): 0.23%
viability, T/C (second compound 3.16 µM, first compound 0.01 µM): 0.07%
viability, T/C [9]: 1.63%
viability, T/C [10]: 0.08%
viability, T/C (second compound 10 µM, first compound 0.000316 µM): 1.25%
viability, T/C (second compound 10 µM, first compound 0.001 µM): 0.1%
viability, T/C (second compound 10 µM, first compound 0.00316 µM): 0.49%
viability, T/C (second compound 10 µM, first compound 0.01 µM): 0.52%
viability, T/C [11]: 0.29%
viability, T/C [12]: 0.13%

Nc1ccn(C2OC(CO)C(O)C2(F)F)c(=O)n1 (stereo unspecified) + CN1CCN(c2cc(C(=O)Nc3cc4cc(-c5cnn(C)c5)ccc4cn3)ccn2)CC1
IC50 (second compound 0.0316 µM): < 31.6 nM
IC50 (second compound 0.1 µM): < 31.6 nM
IC50 (second compound 0.316 µM): < 31.6 nM
IC50 (second compound 1 µM): < 31.6 nM
IC50 (second compound 3.16 µM): < 31.6 nM
IC50 (second compound 10 µM): < 31.6 nM
viability, T/C [1]: 10.9%
viability, T/C [2]: 5.93%
viability, T/C [13]: 5%
viability, T/C [14]: 6.45%
viability, T/C [15]: 6.59%
viability, T/C [16]: 3.28%
viability, T/C [3]: 10.4%
viability, T/C [4]: 5.09%
viability, T/C [17]: 4.66%
viability, T/C [18]: 5.3%
viability, T/C [19]: 4.72%
viability, T/C [20]: 1.97%
viability, T/C [5]: 7.96%
viability, T/C [6]: 4.03%
viability, T/C [21]: 2.64%
viability, T/C [22]: 2.49%
viability, T/C [23]: 1.51%
viability, T/C [24]: 0.83%
viability, T/C [7]: 0.1%
viability, T/C [8]: 0.12%
viability, T/C [25]: 0.11%
viability, T/C [26]: 0.05%
viability, T/C [27]: 1.02%
viability, T/C [28]: 0.05%
viability, T/C [9]: 0.08%
viability, T/C [10]: 0.11%
viability, T/C [29]: 0.12%
viability, T/C [30]: 0.07%
viability, T/C [31]: 0.82%
viability, T/C [32]: 0.09%
viability, T/C [11]: 0.18%
viability, T/C [12]: 1.56%
viability, T/C [33]: 0.87%
viability, T/C [34]: 1.76%
viability, T/C [35]: 0.56%
viability, T/C [36]: 0.13%

O=c1[nH]cc(F)c(=O)[nH]1 + CN1CCN(c2cc(C(=O)Nc3cc4cc(-c5cnn(C)c5)ccc4cn3)ccn2)CC1
IC50 (second compound 0.0316 µM): > 10000 nM
IC50 (second compound 0.1 µM): > 10000 nM
IC50 (second compound 0.316 µM): < 31.6 nM
IC50 (second compound 1 µM): < 31.6 nM
IC50 (second compound 3.16 µM): < 31.6 nM
IC50 (second compound 10 µM): < 31.6 nM
viability, T/C [1]: 92.2%
viability, T/C [2]: 86.8%
viability, T/C [13]: 93.4%
viability, T/C [14]: 82.3%
viability, T/C [15]: 74.5%
viability, T/C [16]: 56.2%
viability, T/C [3]: 82%
viability, T/C [4]: 82.2%
viability, T/C [17]: 78.4%
viability, T/C [18]: 67.4%
viability, T/C [19]: 70.6%
viability, T/C [20]: 54.1%
viability, T/C [5]: 24.9%
viability, T/C [6]: 23.4%
viability, T/C [21]: 28.6%
viability, T/C [22]: 22.5%
viability, T/C [23]: 19.1%
viability, T/C [24]: 14.8%
viability, T/C [7]: 0.12%
viability, T/C [8]: 0.11%
viability, T/C [25]: 0.1%
viability, T/C [26]: 0.08%
viability, T/C [27]: 1.26%
viability, T/C [28]: 0.11%
viability, T/C [9]: 0.39%
viability, T/C [10]: 1.04%
viability, T/C [29]: 0.08%
viability, T/C [30]: 1.36%
viability, T/C [31]: 0.05%
viability, T/C [32]: 0.94%
viability, T/C [11]: 1.85%
viability, T/C [12]: 1.37%
viability, T/C [33]: 0.12%
viability, T/C [34]: 0.11%
viability, T/C [35]: 0.1%
viability, T/C [36]: 0.68%
